Assay results taken from ChEMBL document CHEMBL1148364, “Structure-based design, synthesis, and structure-activity relationship studies of novel non-nucleoside adenosine deaminase inhibitors” (J Med Chem, 2004).

Test system: not listed separately
Experiment: AUC 0-8 hr value in rats at 10 mg/kg
Assay type: ADME, organism-based
Parameters: time < 8 hr, dose 10 mg/kg
Details: rat, plasma

Structure (SMILES)	AUC(0-t) at 8 h
Cn1cc(CC[C@H](CO)n2cnc(C(N)=O)c2)c2cc(OCCCc3ccc(Cl)cc3)ccc21	260 ng·h/mL

Test system: not listed separately
Experiment: Cmax value in rats at 10 mg/kg
Assay type: ADME, organism-based
Parameters: dose 10 mg/kg
Details: rat, in vivo

Structure (SMILES)	Cmax
Cn1cc(CC[C@H](CO)n2cnc(C(N)=O)c2)c2cc(OCCCc3ccc(Cl)cc3)ccc21	210 ng/mL

Biological target: T1, Adenosine deaminase (Homo sapiens, UniProt P00813)
T1 sequence (P00813 whole entry): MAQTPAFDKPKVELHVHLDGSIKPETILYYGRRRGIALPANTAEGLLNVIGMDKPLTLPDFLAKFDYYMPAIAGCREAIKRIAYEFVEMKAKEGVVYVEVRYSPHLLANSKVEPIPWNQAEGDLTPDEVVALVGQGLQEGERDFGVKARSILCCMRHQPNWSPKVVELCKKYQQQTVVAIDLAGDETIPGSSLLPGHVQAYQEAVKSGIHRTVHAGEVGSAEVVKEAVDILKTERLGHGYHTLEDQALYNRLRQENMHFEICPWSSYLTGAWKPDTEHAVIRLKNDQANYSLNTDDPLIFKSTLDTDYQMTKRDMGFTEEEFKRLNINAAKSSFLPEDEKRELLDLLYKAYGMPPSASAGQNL
Details: not given

Structure (SMILES)	Ki
Cc1ccc(CCC(=O)Nc2ccc3ccn(CC[C@H](CO)n4cnc(C(N)=O)c4)c3c2)cc1	38 nM
CC(=O)Nc1ccc2ccn(CC[C@H](CO)n3cnc(C(N)=O)c3)c2c1	1300 nM
NC(=O)c1cn([C@@H](CO)CCn2ccc3ccc(OCCCCc4ccccc4)cc32)cn1	12 nM
Cc1ccc(CCCC(=O)Nc2ccc3ccn(CC[C@H](CO)n4cnc(C(N)=O)c4)c3c2)cc1	34 nM
CCCCCCOc1ccc2c(c1)c(CC[C@H](CO)n1cnc(C(N)=O)c1)cn2C	13 nM
COc1ccc(CCC(=O)Nc2ccc3ccn(CC[C@H](CO)n4cnc(C(N)=O)c4)c3c2)cc1	57 nM
CCCCOc1ccc2ccn(CC[C@H](CO)n3cnc(C(N)=O)c3)c2c1	240 nM
NC(=O)c1cn([C@@H](CO)CCn2ccc3ccc(OCCCc4ccccc4)cc32)cn1	17 nM
CCCCCCOc1ccc2c(ccn2CC[C@H](CO)n2cnc(C(N)=O)c2)c1	6200 nM
CCCCCCOc1ccc2ccn(CC[C@H](CO)n3cnc(C(N)=O)c3)c2c1	55 nM
CCCCCC(=O)Nc1ccc2ccn(CC[C@H](CO)n3cnc(C(N)=O)c3)c2c1	24 nM
NC(=O)c1cn([C@@H](CO)CCn2ccc3ccc(NC(=O)CCc4cccnc4)cc32)cn1	17 nM
Cn1cc(CC[C@H](CO)n2cnc(C(N)=O)c2)c2cc(OCCCc3ccc(Cl)cc3)ccc21	4.9 nM
NC(=O)c1cn([C@@H](CO)CCn2ccc3ccc(OCCCc4ccc(Cl)cc4)cc32)cn1	13 nM
NC(=O)c1cn([C@@H](CO)CCn2ccc3ccc(NC(=O)CCCCCc4ccccc4)cc32)cn1	91 nM
NC(=O)c1cn([C@@H](CO)CCn2ccc3cc(OCCCc4ccccc4)ccc32)cn1	1900 nM

Test system: not listed separately
Experiment: Oral bioavailability in rats at 10 mg/kg
Assay type: ADME, organism-based
Details: rat, in vivo

Structure (SMILES)	bioavailability
Cn1cc(CC[C@H](CO)n2cnc(C(N)=O)c2)c2cc(OCCCc3ccc(Cl)cc3)ccc21	10%
